Structures can show the parent of a compound that is named as a salt.
What follows are compounds tested on Diet Induced Obese (DIO) C57BL/6 mice (assay: 10 day DIO mouse model (body weight, food intake, hematology, blood chemistry)). Settings: 240 h; DIO mouse, 0.3 mpk sc, once a day for 10 days; read-out: DIO Mouse 10-day weight loss vs vehicle.
Type: in vivo
Text: The objective of this study design was to investigate the efficacy of disclosed compounds in a 10 day DIO mouse model. Effects on body weight, food intake, hematology and blood chemistry were the primary readouts of this study design. […] Mice were fed Research Diets D12492 (60% Kcal fat, 20% Kcal carbohydrate and 20% protein) and provided water ad libitum. DIO mice were received and housed in the facility for approximately two weeks prior to the start of test article administration. On Day −4 or −3, mice were randomized into study groups based on body weight and body weights were continued to be recorded daily for the duration of the study. Daily food intake was assessed starting on Study Day −2 by weighing of the food with hopper together to avoid loss of food in transfer.
Compounds were formulated into a 100% DMSO stock (at 9 mg/mL) prior to the start, and further diluted into the target working concentration using the vehicle of 10% DMSO in water. Prior to test article administration, starting on Day −3 a dosing acclimation occured with all animals receiving a subcutaneous injection of vehicle (10% DMSO) only for 3 days. Starting on Day 1, test compounds or vehicle were administered based on individual body weight, subcutaneously, once a day for 10 days. All mice were sacrificed on Day 11, 24 hours following the final dosing on Day 10. After sacrifice, whole blood was collected and analyzed for hematology and blood chemistry parameters.
Compounds were tested vs. vehicle at various doses (1.0, 0.5, 0.3, 0.1, 0.03 mpk sc (mg per kg animal weight delivered subcutaneously), and the results are shown in Table 2 below.

Row | SMILES | inhibition in vivo at 0.3 mg/kg [%]
1 | CO[C@@H]1[C@H](OC(=O)N2CC(Oc3ccccn3)C2)CC[C@]2(CO2)[C@H]1[C@@]1(C)O[C@@H]1CC=C(C)C [Example 99, (3R,4S,5S,6R)-5-methoxy-4-((2R,3R)-2-methyl-3-(3-methylbut-2-enyl)oxiran-2-yl)-1-oxaspiro[2.5]octan-6-yl 3-(pyridin-2-yloxy)azetidine-1-carboxylate] | 22.9
2 | CO[C@@H]1[C@H](OC(=O)N2CC(CCN3CCN(S(C)(=O)=O)CC3)C2)CC[C@]2(CO2)[C@H]1[C@@]1(C)O[C@@H]1CC=C(C)C [Example 15, (3R,4S,5S,6R)-5-methoxy-4-((2R,3R)-2-methyl-3-(3-methylbut-2-enyl)oxiran-2-yl)-1-oxaspiro[2.5]octan-6-yl 3-(2-(4-(methylsulfonyl)piperazin-1-yl)ethyl)azetidine-1-carboxylate] | 0.1
3 | CO[C@@H]1[C@H](OC(=O)N2CC(OC(=O)N(C)C)C2)CC[C@]2(CO2)[C@H]1[C@@]1(C)O[C@@H]1CC=C(C)C [Example 77, (3R,4S,5S,6R)-5-methoxy-4-((2R,3R)-2-methyl-3-(3-methylbut-2-enyl)oxiran-2-yl)-1-oxaspiro[2.5]octan-6-yl 3-(dimethylcarbamoyloxy)azetidine-1-carboxylate] | 16.3
4 | CO[C@@H]1[C@H](OC(=O)N2CC(CCN3CCNC(=O)C3)C2)CC[C@]2(CO2)[C@H]1[C@@]1(C)O[C@@H]1CC=C(C)C [Example 12, (3R,4S,5S,6R)-5-methoxy-4-((2R,3R)-2-methyl-3-(3-methylbut-2-enyl)oxiran-2-yl)-1-oxaspiro[2.5]octan-6-yl 3-(2-(3-oxopiperazin-1-yl)ethyl)azetidine-1-carboxylate] | 1.1
5 | CO[C@@H]1CCN(CCC2CN(C(=O)O[C@@H]3CC[C@]4(CO4)[C@@H]([C@@]4(C)O[C@@H]4CC=C(C)C)[C@@H]3OC)C2)C1 [Example 26, (3R,4S,5S,6R)-5-methoxy-4-((2R,3R)-2-methyl-3-(3-methylbut-2-enyl)oxiran-2-yl)-1-oxaspiro[2.5]octan-6-yl 3-(2-((R)-3-methoxypyrrolidin-1-yl)ethyl)azetidine-1-carboxylate] | 4.1
6 | CO[C@@H]1[C@H](OC(=O)N2CC(CCN3CC(C(=O)N(C)C)C3)C2)CC[C@]2(CO2)[C@H]1[C@@]1(C)O[C@@H]1CC=C(C)C [Example 19, (3R,4S,5S,6R)-5-methoxy-4-((2R,3R)-2-methyl-3-(3-methylbut-2-enyl)oxiran-2-yl)-1-oxaspiro[2.5]octan-6-yl 3-(2-(3-(dimethylcarbamoyl)azetidin-1-yl)ethyl)azetidine-1-carboxylate] | 6.7
7 | CO[C@@H]1[C@H](OC(=O)N2CC(CCN3CC(C)(C(=O)N(C)C)C3)C2)CC[C@]2(CO2)[C@H]1[C@@]1(C)O[C@@H]1CC=C(C)C [Example 20, (3R,4S,5S,6R)-5-methoxy-4-((2R,3R)-2-methyl-3-(3-methylbut-2-enyl)oxiran-2-yl)-1-oxaspiro[2.5]octan-6-yl 3-(2-(3-(dimethylcarbamoyl)-3-methylazetidin-1-yl)ethyl)azetidine-1-carboxylate] | 2.1
8 | COC(=O)NC1CN(C(=O)O[C@@H]2CC[C@]3(CO3)[C@@H]([C@@]3(C)O[C@@H]3CC=C(C)C)[C@@H]2OC)C1 [Example 87, (3R,4S,5S,6R)-5-methoxy-4-((2R,3R)-2-methyl-3-(3-methylbut-2-enyl)oxiran-2-yl)-1-oxaspiro[2.5]octan-6-yl 3-(methoxycarbonylamino)azetidine-1-carboxylate] | 10.9
9 | CCN(CC)CCNC(=O)OCC1CN(C(=O)O[C@@H]2CC[C@]3(CO3)[C@@H]([C@@]3(C)O[C@@H]3CC=C(C)C)[C@@H]2OC)C1 [Example 68, (3R,4S,5S,6R)-5-methoxy-4-((2R,3R)-2-methyl-3-(3-methylbut-2-en-1-yl)oxiran-2-yl)-1-oxaspiro[2.5]octan-6-yl 3-((((2-(diethylamino)ethyl)carbamoyl)oxy)methyl)azetidine-1-carboxylate] | 0
10 | CO[C@@H]1[C@H](OC(=O)N2CC(CCn3ccnc3)C2)CC[C@]2(CO2)[C@H]1[C@@]1(C)O[C@@H]1CC=C(C)C [Example 18, (3R,4S,5S,6R)-5-methoxy-4-((2R,3R)-2-methyl-3-(3-methylbut-2-enyl)oxiran-2-yl)-1-oxaspiro[2.5]octan-6-yl 3-(2-(1H-imidazol-1-yl)ethyl)azetidine-1-carboxylate] | 3
11 | CO[C@@H]1[C@H](OC(=O)N2CC(CCN3C4CCC3CC4)C2)CC[C@]2(CO2)[C@H]1[C@@]1(C)O[C@@H]1CC=C(C)C [Example 32, (3R,4S,5S,6R)-5-methoxy-4-((2R,3R)-2-methyl-3-(3-methylbut-2-enyl)oxiran-2-yl)-1-oxaspiro[2.5]octan-6-yl 3-(2-((1S,4S)-7-azabicyclo[2.2.1]heptan-7-yl)ethyl)azetidine-1-carboxylate] | 0.5
12 | CO[C@@H]1[C@H](OC(=O)N2CC[C@H]2CN2CCCC2)CC[C@]2(CO2)[C@H]1[C@@]1(C)O[C@@H]1CC=C(C)C [Example 41, (S)-((3R,4S,5S,6R)-5-methoxy-4-((2R,3R)-2-methyl-3-(3-methylbut-2-enyl)oxiran-2-yl)-1-oxaspiro[2.5]octan-6-yl) 2-(pyrrolidin-1-ylmethyl)azetidine-1-carboxylate formate] | 4.4
13 | CO[C@@H]1[C@H](OC(=O)N2CC(OC(=O)NC(C)C)C2)CC[C@]2(CO2)[C@H]1[C@@]1(C)O[C@@H]1CC=C(C)C [Example 76, (3R,4S,5S,6R)-5-methoxy-4-((2R,3R)-2-methyl-3-(3-methylbut-2-enyl)oxiran-2-yl)-1-oxaspiro[2.5]octan-6-yl 3-(isopropylcarbamoyloxy)azetidine-1-carboxylate] | 15.4
14 | CO[C@H]1CCN(CCC2CN(C(=O)O[C@@H]3CC[C@]4(CO4)[C@@H]([C@@]4(C)O[C@@H]4CC=C(C)C)[C@@H]3OC)C2)C1 [Example 25, (3R,4S,5S,6R)-5-methoxy-4-((2R,3R)-2-methyl-3-(3-methylbut-2-enyl)oxiran-2-yl)-1-oxaspiro[2.5]octan-6-yl 3-(2-((S)-3-methoxypyrrolidin-1-yl)ethyl)azetidine-1-carboxylate] | 4.8
15 | CO[C@@H]1[C@H](OC(=O)N2CC(CCC3CCN(C)CC3)C2)CC[C@]2(CO2)[C@H]1[C@@]1(C)O[C@@H]1CC=C(C)C [Example 90, (3R,4S,5S,6R)-5-methoxy-4-((2R,3R)-2-methyl-3-(3-methylbut-2-enyl)oxiran-2-yl)-1-oxaspiro[2.5]octan-6-yl 3-(2-(1-methylpiperidin-4-yl)ethyl)azetidine-1-carboxylate formate] | 13.5
16 | CO[C@@H]1[C@H](OC(=O)N2CC(=CCN3CCN(CC(F)F)CC3)C2)CC[C@]2(CO2)[C@H]1[C@@]1(C)O[C@@H]1CC=C(C)C [Example 97, (3R,4S,5S,6R)-5-methoxy-4-((2R,3R)-2-methyl-3-(3-methylbut-2-enyl)oxiran-2-yl)-1-oxaspiro[2.5]octan-6-yl 3-(2-(4-(2,2-difluoroethyl)piperazin-1-yl)ethylidene)azetidine-1-carboxylate] | 21.3
17 | CO[C@@H]1[C@H](OC(=O)N2CC[C@@H](CCN3CC(F)(F)C3)C2)CC[C@]2(CO2)[C@H]1[C@@]1(C)O[C@@H]1CC=C(C)C [Example 58, (R)-((3R,4S,5S,6R)-5-methoxy-4-((2R,3R)-2-methyl-3-(3-methylbut-2-enyl)oxiran-2-yl)-1-oxaspiro[2.5]octan-6-yl) 3-(2-(3,3-difluoroazetidin-1-yl)ethyl)pyrrolidine-1-carboxylate] | 15.8
18 | CO[C@@H]1[C@H](OC(=O)N2CC(CCN3CCC(F)CC3)C2)CC[C@]2(CO2)[C@H]1[C@@]1(C)O[C@@H]1CC=C(C)C [Example 30, (3R,4S,5S,6R)-5-methoxy-4-((2R,3R)-2-methyl-3-(3-methylbut-2-enyl)oxiran-2-yl)-1-oxaspiro[2.5]octan-6-yl 3-(2-(4-fluoropiperidin-1-yl)ethyl)azetidine-1-carboxylate] | 9.1
19 | CO[C@@H]1[C@H](OC(=O)N2CC(COC(=O)N(C)C)C2)CC[C@]2(CO2)[C@H]1[C@@]1(C)O[C@@H]1CC=C(C)C [Example 70, (3R,4S,5S,6R)-5-methoxy-4-((2R,3R)-2-methyl-3-(3-methylbut-2-enyl)oxiran-2-yl)-1-oxaspiro[2.5]octan-6-yl 3-((dimethylcarbamoyloxy)methyl)azetidine-1-carboxylate] | 14.5
20 | CO[C@@H]1[C@H](OC(=O)N2CC(CCN3CCN(C)C(=O)C3)C2)CC[C@]2(CO2)[C@H]1[C@@]1(C)O[C@@H]1CC=C(C)C [Example 11, (3R,4S,5S,6R)-5-methoxy-4-((2R,3R)-2-methyl-3-(3-methylbut-2-enyl)oxiran-2-yl)-1-oxaspiro[2.5]octan-6-yl 3-(2-(4-methyl-3-oxopiperazin-1-yl)ethyl)azetidine-1-carboxylate formate] | 2
